Source: patent US10980768B2, “Composition containing carboplatin and use” (SYN-NAT PRODUCTS ENTERPRISE LLC, priority 2015, dated 2021)
Read-outs that look alike come from different tables or passages of the source.

Legend:
[1] = tested on: ACHN cells; assay: Cell viability (MTS) assay in ACHN cells, renal adenocarcinoma study; format: cell-based; settings: ACHN renal carcinoma cells, OD490 cell viability
Text: (§1) Cell culture: A498 and ACHN cells were purchased from Tongbai Bio (Shanghai, China).

[2] = tested on: HL-7002 cells; assay: Cell viability (MTS) assay in HL-7002 cells, renal adenocarcinoma study
[3] = tested on: A498 cells; assay: Cell viability (MTS) assay in A498 cells, renal adenocarcinoma study; format: cell-based; settings: A498 renal carcinoma cells, OD490 cell viability
Text: as §1

[4] = tested on: HEK293 cells; assay: Cell viability (MTS) assay in HEK293 cells, renal adenocarcinoma study; format: cell-based, human; settings: HEK293 normal embryonic kidney cells
[5] = tested on: HEK293 cells; assay: Cell viability (MTS) assay in HEK293 cells, leukemia study; settings: for IC50: Homo sapiens, HEK293; for toxicity: HEK293 cells, leukemia study, result in words
[6] = tested on: HL-60 cells; assay: Cell viability (MTS) assay in HL-60 cells, leukemia study; format: cell-based; settings: HL-60 human promyelocytic leukemia cells, OD490 cell viability
[7] = tested on: HL-7002 cells; settings: leukemia study; for IC50: HL-7002 human fetal hepatic cells
Experimental: After comparison of OD490 values of the tested agents and the control agents, an index of relative repression rate of cell proliferation was obtained. The IC50 value was calculated by using the SPSS16.0 software.
The cells were cultured in RPMI+5% Fetal Bovine Serum (FBS).
Cells treated with the solvents were used as negative controls, and carboplatin, etiposide and MTX were used as the positive controls. The cells were monitored daily, and the cell viability was evaluated with the Promega CellTiter 96 AQueous One Solution Cell Proliferation Assay (Promega, Madison, Wis., USA) according to the manufacture manuals. The cell viability was monitored at OD490 reading in a bio-spectrometer (Perkin Elmer, Walthan, Mass., USA).
Data analysis: The OD490 reading data were collected hourly from 1 h to 4 h after the addition of lysis buffer. The index of cell growth repression ratio was obtained by comparing the OD490 data of treatment to the negative control. The drug response rate IC50 was calculated with the SPSS 16.0 software.

[8] = tested on: K562 cells; assay: Cell viability (MTS) assay in K562 cells, leukemia study; format: cell-based, human; settings: for toxicity: K562 cells, result in words; for IC50: K562 human myelogenous leukemia cells, OD490 cell viability
[9] = tested on: melanoma; assay: Case of a melanoma patient with multiple metastases in the brain and adrenal gland treated with DCP solution; format: in vivo, human
Text: The following case summarizes DCP's pharmaceutical use on a melanoma patient with multiple metastases in the brain and adrenal grand. A metastatic tumor mass firstly was detected at the right frontal and parietal lobe of a patient's brain by MRI, and was removed by surgery in one month later. However, a new tumor mass with edema around it was detected at the left of parietal lobe. The tumor grew bigger, and the edema around the tumor became worse about two months after the new tumor was detected. The patient was treated with DCP solution (150 mg of DCP in 250 mL aqueous solution one time for every three days) for about three weeks.
The left lateral ventricle was compressed. The sign of removed tumors could be distinguished at the right frontal and parietal lobe, and the postoperative repair was found in the right frontal parietal bone. The midline structure shifted to the right side.
After treatment with DCP solution for about three weeks, the patient was examined (FIG. 10). […] The tumors at the right frontal and parietal lobe were removed, and the midline structure was normal.

[10] = HL-7002 normal hepatocytes, renal adenocarcinoma study
[11] = after DCP solution for about three weeks
[12] = melanoma brain metastasis, 150 mg DCP in 250 mL every three days for about three weeks

Molecule	IC50 [5]	IC50 [6]	toxicity [8]	IC50 [1]	IC50 [2, 10]	toxicity [5]	IC50 [3]	IC50 [7]	IC50 [4]	IC50 [8]	other results
O=c1[nH]cc(F)c(=O)[nH]1 [5-FU, fluorouracil]	–	–	–	–	–	–	–	–	–	–	IC50 ([1]; Homo sapiens): 6.45 µM; IC50 ([2]; Homo sapiens, Hepatocyte): 356 µM; IC50 ([3]; Homo sapiens): 18.2 µM; IC50 ([4]; Homo sapiens): 45 µM
CN(Cc1cnc2nc(N)nc(N)c2n1)c1ccc(C(=O)N[C@@H](CCC(=O)O)C(=O)O)cc1 [MTX, Methotrexate]	17.6 µM	15.3 µM	did not show any toxicity	–	–	–	–	–	–	–	toxicity ([7]; HL-7002 cells, result in words): little toxicity
N.N.O=C([O-])C1(C(=O)[O-])CCC1.[Pt+2] [carboplatin]	–	17.3 µM	–	11 µM	1410 µM	no toxicity	18.4 µM	503 µM	410 µM	1210 µM	–
COc1cc([C@@H]2c3cc4c(cc3[C@@H](O[C@@H]3O[C@@H]5CO[C@@H](C)O[C@H]5[C@H](O)[C@H]3O)[C@H]3COC(=O)[C@H]23)OCO4)cc(OC)c1O [etoposide]	359 µM	15.3 µM	did not show any toxicity	–	–	–	–	512 µM	–	–	–
dicycloplatin [DCP]	–	18.6 µM	–	15.4 µM	1470 µM	no toxicity	20.9 µM	503 µM	463 µM	812 µM	cellular toxicity lower than 5-FU ([2]; HL-7002 and HEK293 normal cells, compared to 5-FU): 4 fold; edema around the tumor, post-chemo CT [9, 11]: significantly relieved; tumor mass at the left of parietal lobe, post-chemo CT vs pre-chemo CT [9, 11]: shrunk; edema around the tumor by MRI [9, 12]: relieved; tumor mass by MRI [9, 12]: shrunk
